This is an account of results in paper PMC12621189, “Optimization of Selective and CNS Penetrant Alkyne-Based TREK Inhibitors: The Discovery and Characterization of ONO-9517601 (VU6022856) and ONO-7927846 (VU6024391)” (Journal of Medicinal Chemistry, 2025).

Series [1] deals with T1, human TREK-1 (hTREK-1) (Homo sapiens, UniProt O95069).
T1 construct: expressed in transfected cells
T1 sequence (O95069 1-426): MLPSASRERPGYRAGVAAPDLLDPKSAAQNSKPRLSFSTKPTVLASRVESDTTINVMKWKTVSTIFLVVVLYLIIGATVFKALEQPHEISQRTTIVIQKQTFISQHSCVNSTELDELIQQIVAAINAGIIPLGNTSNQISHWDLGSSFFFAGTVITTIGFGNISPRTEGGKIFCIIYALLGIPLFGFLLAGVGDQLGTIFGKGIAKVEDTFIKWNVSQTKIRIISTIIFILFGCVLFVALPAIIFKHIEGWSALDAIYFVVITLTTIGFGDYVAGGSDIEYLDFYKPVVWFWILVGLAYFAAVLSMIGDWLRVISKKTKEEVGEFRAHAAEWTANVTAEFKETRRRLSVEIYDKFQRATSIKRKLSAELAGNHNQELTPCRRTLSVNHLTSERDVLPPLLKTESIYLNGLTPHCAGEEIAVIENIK
In words: TREK-1 thallium flux assay (CHO-K1 cells stably expressing hTREK-1). The note with it: human TREK-1, thallium flux; read-out: h TREK-1 Tl+ IC50. Type of series: cell-based. On the procedure: Procedures for Biological Experiments
TREK-1 Thallium flux assay
CHO-K1 cells stably expressing hTREK-1 were cultured in T225 flask. The cells were loaded with FluxOR dye and plated in 384 well plate at the experiment day. Test compounds or control compound (tert-butyl (3-((4-(benzyloxy)-2-methylphenyl)carbamoyl)-4-chlorophenyl)carbamate) or 0.3% DMSO (vehicle control) were added directly to the cell plates and incubated for 10 min, and then treated with thallium stimulus buffer to initiate thallium flux.
To measure the efficacy and potency of test compounds, the change in fluorescence intensity (ΔRatio) and % inhibition were calculated using the following equations:
ΔRatio = (fluorescence intensity at 25 seconds after thallium addition)/(average of fluorescent intensity before thallium addition)
0.3% DMSO - ΔRatio of 10 μM control compound)}x100
% inhibition vs compound concentration were plotted in XLfit and calculated IC50.
CHO-K1 cells stably expressing human TREK-1 (hTREK-1) were cultured in T225 flask.
The cells were loaded with FluxOR dye and plated in 384 well plate at the experiment day. Test compounds or control compound (tert-butyl (3-((4-(benzyloxy)-2-methylphenyl)carbamoyl)-4-chlorophenyl)carbamate) or 0.3% DMSO (vehicle control) which were prepared on separate plates were added to the cell plates and incubated for 10 min, and then the cells with test compounds or […]
chlorophenyl)carbamate) or 0.3% DMSO (vehicle control) were treated with thallium stimulus buffer to initiate thallium flux. To measure the efficacy and potency of test compounds, the change in fluorescence intensity (ΔRatio) and % inhibition were calculated using the following equations: […]

Series [2] is described as follows: ChromatoLogD. In kind it is physicochemical.
Series [3] is described as follows: Liver microsome intrinsic clearance, human. In kind it is in vitro ADME. Particulars: pH 7.4; human liver microsomes, predicted intrinsic clearance; read-out: LMS CLINT human. The method, then:
were incubated in 100 mM potassium phosphate pH 7.4 buffer with 3 mM MgCl2 at 37 °C with constant shaking. After a 5 min preincubation, the reaction was initiated by the addition of NADPH (1 mM). At selected time intervals (0, 3, 7, 15, 25, and 45 min), aliquots were taken and subsequently placed into a 96-well plate containing cold acetonitrile with internal standard (50 ng/mL carbamazepine). Plates were then centrifuged at 3000 rcf (4 °C) for 10 min, and the supernatant was transferred to a separate 96-well plate and diluted 1:1 with water for LC/MS/MS analysis. The in vitro half-life ( 1/2, min, Eq. 1), intrinsic clearance (CLint, mL/min/kg, Eq. 2), and subsequent predicted hepatic clearance (CLhep, mL/min/kg, Eq. 3) was determined employing the […]
where k represents the slope from linear regression analysis of the natural log percent remaining of a test compound as a function of incubation time […]
(2) CLint = in vitroT x mg microsomes x gram liver x kg body wt ascale-up factors: of 20 (human) or 45 (rat) […]
where Qh (hepatic blood flow, mL/min/kg) is 21 (human) or 70 (rat).
LC/MS/MS Bioanalysis of Samples from Plasma Protein Binding and Intrinsic Clearance […]
Samples were analyzed on a Thermo Electron TSQ Quantum Ultra triple quad mass spectrometer (San Jose, CA) via electrospray ionization (ESI) with two Themo Electron Accella pumps (San Jose, CA), and a Leap Technologies CTC PAL autosampler (Carrboro, NC). Analytes were […]

Series [4] is described as follows: Liver microsome intrinsic clearance, mouse. Type of series: in vitro ADME. Particulars: pH 7.4; mouse liver microsomes, predicted intrinsic clearance; read-out: LMS CLINT mouse.
A short description of series [5]: Rat in vivo PK (plasma clearance) in SAR tables. The note with it: read-out: Rat CLp.
Series [6] can be described thus: Rat brain to plasma ratio (Kp, Kp,uu). In kind it is in vivo. Particulars: male, Sprague Dawley, brain and plasma, intravenous, 0.2 mg/kg; rat brain:plasma. On the procedure:
Determination of brain to plasma ratio:
All animal study procedures were approved by the Institutional Animal Care and Use Committee and were conducted in accordance with the National Institutes of Health regulations of animal care covered in Principles of Laboratory Animal Care (National Institutes of Health). All rats were fasted overnight prior to testing.
For determination of the brain over plasma ratio (Kp), compounds were formulated in 8% ethanol, 32% PEG400 and 60% DMSO (v/v/v) and administered as a single 0.2 mg/kg IV dose (1 mL/kg) to male, Sprague Dawley rats (n = 1) via injection into a surgically-implanted jugular vein catheter. At 15 min post dosing, blood sample was collected into chilled, K2EDTA anticoagulant-fortified tube and immediately placed on wet ice. The blood sample was then centrifuged (1700 rcf, 5 minutes, 4 °C) to obtain plasma sample. At the same post-administration time point, whole brain sample was obtained by rapid dissection, rinsed with PBS, and immediately frozen in individual tissue collection box (dry ice). All brain and plasma samples were stored at -80 °C until […]
Sample Analysis: Concentrations in plasma and brain homogenates were quantified by liquid chromatography tandem mass spectrometry (LC-MS/MS). Whole brains were homogenized in 3 mL of 70:30 IPA:water in a mini bead beater for 3 min, and centrifuged at 3,500 g for 5 min. 5 uL of the supernatant was diluted in 15 uL of blank plasma for quantification of the analytes. Plasma samples were centrifuged at 3,500 g for 5 min. A standard curve was generated by diluting the analytes DMSO stocks with blank plasma to obtain a final concentration of 10,000 ng/ml followed by a serial dilution down to 0.5 ng/ml. Quality controls were generated by a serial dilution of the 5,000 ng/ml standard curve solution in blank plasma to obtain 3 concentrations of 500, 50, and 5 ng/ml. 20 uL of brain diluted in plasma, plasma, blank plasma, standard curve and QC samples were loaded in a V-bottom 96-well plate. 120 uL of acetonitrile containing 0.05 uM carbamazepine (internal standard) was added to each well and the plate was centrifuged at 3,500 g for 5 min. 60 uL of the supernatant of each well (protein free) was transferred to a new 96-well plate containing 60 uL of water. The plates were sealed for analysis by LC-MS/MS.
Plasma and brain tissue samples originating from in vivo studies were analyzed by electrospray ionization using an AB Sciex Q-TRAP 5500 (Foster City, CA) that was coupled to a Shimadzu LC-20AD pump (Columbia, MD) and a Leap Technologies CTC PAL auto-sampler (Carrboro, NC). Analytes were separated by gradient elution using a C18 column (3 x 50 mm, 3 mm; Fortis Technologies Ltd, Cheshire, UK) that was thermostated at 40 °C. HPLC mobile phase A was 0.1% formic acid in water (pH unadjusted); mobile phase B was 0.1% formic acid in acetonitrile (pH […]
min, with an isocratic hold for 0.5 min, before transitioning to 10% B over 0.05 min. The column was re-equilibrated (1 min) before the next sample injection. The total run time was 2.55 min, and the HPLC flow rate was 0.5 ml/min. The source temperature was set at 500 °C, and mass spectral analyses were performed using a Turbo-Ion spray source in positive ionization mode (5.0-kV spray voltage) and using multiple-reaction monitoring of transitions specific for the analytes. All data were analyzed using AB Sciex Analyst 1.5.1 software.
Brain plasma concentration ratio (Kp) was calculated by dividing brain concentration by plasma concentration for each animal. Unbound brain to unbound plasma concentration ratio (Kp,uu) is calculated using the following formula: Kp,uu = (Brain ng/g x brain fu)/(plasma ng/ml x plasma fu).
In-vitro determination of blood-brain barrier penetration potential
Blood-brain barrier penetration was determined using MDR1-MDCK cell monolayers by Absorption Systems, following their protocol. In short, compounds were incubated at […] final concentration on one side of the cell monolayer for 2 hours. […]

Series [7] concerns the target T2, hTREK-1 (Homo sapiens, UniProt O95069).
T2 construct: expressed in transfected cells
T2 sequence (O95069 1-426): T1 sequence (O95069 1-426)
In words: hTREK-1 manual patch clamp assay. Particulars: human TREK-1, manual patch clamp; read-out: TREK-1 IC50 (human, MPC). In kind it is cell-based. On the procedure: (§1) hTREK-1 and mTREK-1 patch clamp assay
(§2) CHO-K1 cells stably expressing hTREK-1 or CHO-K1 cells transiently expressing mouse TREK-1 (mTREK-1) were plated on glass coverslips, and voltage clamped in the whole-cell configuration of the patch clamp technique. Cells were voltage clamped at a holding potential of - 80 mV and the stepped to 0 mV for 500 msec. The voltage was subsequently ramped from -120mV to +80 mV over a 500 msec duration. This step-ramp protocol was repeated every 10 sec. The bathing solution contained the following: 135 mM NaCl, 5 mM KCl, 2 mM CaCl2, 1 mM MgCl2, 5 mM D-Glucose, 10 mM HEPES, 10 mM sucrose (adjusted to pH 7.4 with NaOH, 300 mosmol/kg H2O). The pipette solution contained the following: 135 mM KCl, 2 mM MgCl2, 1 mM EGTA, 10 mM HEPES, 2 mM Na2ATP (adjusted to pH 7.35 with KOH, 285 mosmol/kg H2O). Test […]
(§3) compounds were dissolved into the bathing solution. The effects of test compound on the currents were calculated at 0 mV using the following equations:
(§4) % inhibition = (1-post current/pre current) x 100
(§5) % inhibition vs compound concentrations were plotted in GraphPad Prism and calculated IC50. […]

The target of series [8] is T3, mouse TREK-1 (mTREK-1) (Mus musculus, UniProt P97438).
T3 construct: expressed in transfected cells; host or cells: CHO-K1 (transient)
T3 sequence (P97438 1-426): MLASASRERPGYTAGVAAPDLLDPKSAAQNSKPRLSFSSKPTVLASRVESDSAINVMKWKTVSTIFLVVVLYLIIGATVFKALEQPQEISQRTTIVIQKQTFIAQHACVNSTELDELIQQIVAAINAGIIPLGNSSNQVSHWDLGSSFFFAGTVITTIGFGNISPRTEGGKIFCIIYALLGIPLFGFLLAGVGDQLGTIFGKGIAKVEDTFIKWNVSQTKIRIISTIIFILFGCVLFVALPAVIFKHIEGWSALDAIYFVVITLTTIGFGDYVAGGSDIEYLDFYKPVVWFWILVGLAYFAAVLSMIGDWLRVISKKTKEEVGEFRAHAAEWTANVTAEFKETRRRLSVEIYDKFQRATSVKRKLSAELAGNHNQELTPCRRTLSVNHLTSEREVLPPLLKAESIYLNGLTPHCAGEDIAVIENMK
In words: mTREK-1 manual patch clamp assay. In kind it is cell-based. Particulars: mouse TREK-1, manual patch clamp; read-out: TREK-1 IC50 (mouse, MPC). The method, then: as §1, §2, §3, §4, §5
For orientation: In patch-clamp work, channel activity is measured electrically.

Molecules are shown by their SMILES.

Turning to `Cc1cc(C#Cc2ccccc2)cnc1NC(=O)c1cc(C(=O)N2CC(F)(F)C2)ccc1Cl` [Compound 13a, 2-Chloro-5-(3,3-difluoroazetidine-1-carbonyl)-N-[3-methyl-5-(2-phenylethynyl)-2-pyridyl]benzamide], in series [1], the IC50 came to 320 nM. The same compound gave a chromatographic logD in series [2] of 4.03. Further, the CLint scaled at 1 µM is 18 mL/min/kg in series [3] and 75 mL/min/kg in series [4]. The clearance in series [5] amounted to 328 mL/min/kg. For the same compound, in series [6], the partition ratio (Kp) at 15 min is 0.84.
Take `Cc1cc(C#Cc2ccccc2)cnc1NC(=O)c1cc(OCC2COCCO2)ccc1Cl` (stereo not shown) [Compound 13c, 2-Chloro-5-(1,4-dioxan-2-ylmethoxy)-N-[3-methyl-5-(2-phenylethynyl)-2-pyridyl]benzamide]: the IC50 in series [1] came out at 130 nM. This compound returned a chromatographic logD in series [2] of 4.14. Also, the CLint scaled at 1 µM is 36 mL/min/kg in series [3] and 107 mL/min/kg in series [4]. In addition, the clearance in series [5] was found to be 16.2 mL/min/kg. Moreover, the Kp at 15 min in series [6] came to 0.89.
On to `Cc1cc(C#Cc2ccccc2)cnc1NC(=O)c1cc(OC[C@H]2COCCO2)ccc1Cl` [Compound 13d, (R)-5-((1,4-Dioxan-2-yl)methoxy)-2-chloro-N-(3-methyl-5-(phenylethynyl)pyridin-2-yl)benzamide], for which the results for the IC50 in series [1], in series [7] and in series [8] were 110 nM, 11 nM and 1200 nM, respectively. Also, the chromatographic logD in series [2] came to 4.14.

Usually IC50 stands for the midpoint of a concentration-inhibition curve. By chromatographic logD is commonly meant lipophilicity estimated from chromatographic retention. Higher therefore signals higher lipophilicity. The term Kp denotes tissue or fluid exposure divided by exposure in the circulation.
